# Test results: patent US11007136B2, “Cosmetic composition for wrinkle reduction containing gypenoside isolated from Gynostemma pentaphyllum” (CELLTRION INC., priority 2015, dated 2021)
# Tests used:
# [1] = Titer stability of UL4 and UL5 within formulations (HPLC); assay type: physicochemical; settings: for content stability Result: over 12 weeks
# Procedure: As shown in Formulation Examples 1, 2 and 3, cosmetic compositions of a high viscosity emulsified formulation, a low viscosity emulsified formulation and a solubilized formulation, respectively comprising 0.2% of the Gynostemma pentaphyllum gypenoside fraction, were stored under a condition of 4 CC, 30 CC, 45° C. and sunlight for 12 weeks and changes with passage of time (% compared to an initial content) in the gypenosides UL4 and UL5, which were index ingredients for quantification out of the Gynostemma pentaphyllum gypenoside ingredients, were observed through an HPLC analysis, and results thereof were indicated in Tables 10 to 12.
# [2] = Stability of the fraction in raw material solution (HPLC content of UL4, UL5); assay type: physicochemical; settings: for content stability Results: over 12 weeks
# Procedure: A solution obtained by dissolving powder of the Gynostemma pentaphyllum gypenoside fraction at a concentration of 4% in 100 mL of a mixed solvent of propylene glycol, glycerin and distilled water at a ratio of 5:3:2 was used to identify stability of the Gynostemma pentaphyllum gypenoside fraction in a raw material state. While the solution was being stored under a condition of 4° C., 30° C. and 45° C. and sunlight for 12 weeks, changes with passage of time (% compared to an initial content) in the gypenosides UL4 and UL5, which were index ingredients for quantification out of the Gynostemma pentaphyllum gypenosides, were observed through an HPLC analysis and results thereof were indicated in Table 3.
# [3] = test system: human dermal fibroblast neonatal; assay: Cytotoxicity test (MTT); assay type: cell-based; settings: for HDFn Viability: 48 h, % control
# Procedure: A human dermal fibroblast neonatal (Cascade Co.) was inoculated into a 24-well microplate (5×10^4 cells/well) by using a medium, in which Dulbeco's Modified Eagle's Medium (DMEM) was supplemented with 10% fetal bovine serum, thus being cultured under a condition of 37° C. and 5% CO2 for 24 hours. Then, the same was replaced with a serum-free DMEM medium and cultured for 24 hours, thus treating the Gynostemma pentaphyllum gypenoside fraction obtained from the Example 1 and the gypenosides UL4 and UL5 isolated therefrom, respectively. After being cultured for 48 hours, an MTT solution was added thereto, thus being cultured for four hours. The medium was removed therefrom and DMSO was added thereto, thus dissolving an MTT formazan. The MTT formazan dissolved in the DMSO was taken out and an optical density thereof was measured at 570 nm, thus being compared to a group without sample treatment and indicated as % control.
structure (smiles),measurement,setting,value
"CC(C)=CC1C[C@](O)([C@H]2CC[C@]3(C)[C@@H]2CC[C@@H]2[C@@]4(C=O)CC[C@H](O[C@@H]5OC[C@H](O)[C@H](O[C@@H]6O[C@H](CO)[C@@H](O)[C@H](O)[C@H]6O)[C@H]5O[C@@H]5O[C@@H](C)[C@H](O)[C@@H](O)[C@H]5O)C(C)(C)[C@@H]4CC[C@]23C)[C@H](O)O1 (stereo partly drawn) [Gypenoside UL5, (23ξ)-3β,20β,21α-trihydroxy-19-oxo-21,23-epoxy-dammar-24-ene-3-O-[α-L-rhamnopyranosyl (1→2)][β-D-glucopyranosyl (1→3)]-α-L-arabinopyranoside]","content, % compared to an initial content","[1]; High viscosity emulsified formulation, 4° C., 1 week",100.6%
same,"content, % compared to an initial content","[1]; High viscosity emulsified formulation, 4° C., 2 weeks",95.1%
same,"content, % compared to an initial content","[1]; High viscosity emulsified formulation, 4° C., 4 weeks",104.4%
same,"content, % compared to an initial content","[1]; High viscosity emulsified formulation, 4° C., 8 weeks",104.2%
same,"content, % compared to an initial content","[1]; High viscosity emulsified formulation, 4° C., 12 weeks",106.9%
same,content stability Result,"[1]; High viscosity emulsified formulation, 4° C.",Stable
same,"content, % compared to an initial content","[1]; High viscosity emulsified formulation, 30° C., 1 week",103.8%
same,"content, % compared to an initial content","[1]; High viscosity emulsified formulation, 30° C., 2 weeks",105.7%
same,"content, % compared to an initial content","[1]; High viscosity emulsified formulation, 30° C., 4 weeks",108.2%
same,"content, % compared to an initial content","[1]; High viscosity emulsified formulation, 30° C., 8 weeks",103.4%
same,"content, % compared to an initial content","[1]; High viscosity emulsified formulation, 30° C., 12 weeks",104.1%
same,content stability Result,"[1]; High viscosity emulsified formulation, 30° C.",Stable
same,"content, % compared to an initial content","[1]; High viscosity emulsified formulation, 45° C., 1 week",102.6%
same,"content, % compared to an initial content","[1]; High viscosity emulsified formulation, 45° C., 2 weeks",104.6%
same,"content, % compared to an initial content","[1]; High viscosity emulsified formulation, 45° C., 4 weeks",102.1%
same,"content, % compared to an initial content","[1]; High viscosity emulsified formulation, 45° C., 8 weeks",101.8%
same,"content, % compared to an initial content","[1]; High viscosity emulsified formulation, 45° C., 12 weeks",103.1%
same,content stability Result,"[1]; High viscosity emulsified formulation, 45° C.",Stable
same,"content, % compared to an initial content","[1]; High viscosity emulsified formulation, Sunlight, 1 week",101.8%
same,"content, % compared to an initial content","[1]; High viscosity emulsified formulation, Sunlight, 2 weeks",99.2%
same,"content, % compared to an initial content","[1]; High viscosity emulsified formulation, Sunlight, 4 weeks",103%
same,"content, % compared to an initial content","[1]; High viscosity emulsified formulation, Sunlight, 8 weeks",101.1%
same,"content, % compared to an initial content","[1]; High viscosity emulsified formulation, Sunlight, 12 weeks",104.9%
same,content stability Result,"[1]; High viscosity emulsified formulation, Sunlight",Stable
same,"content, % compared to an initial content","[1]; Low viscosity emulsified formulation, 4° C., 1 week",98.8%
same,"content, % compared to an initial content","[1]; Low viscosity emulsified formulation, 4° C., 2 weeks",100.4%
same,"content, % compared to an initial content","[1]; Low viscosity emulsified formulation, 4° C., 4 weeks",102.8%
same,"content, % compared to an initial content","[1]; Low viscosity emulsified formulation, 4° C., 8 weeks",100.2%
same,"content, % compared to an initial content","[1]; Low viscosity emulsified formulation, 4° C., 12 weeks",95.2%
same,content stability Result,"[1]; Low viscosity emulsified formulation, 4° C.",Stable
same,"content, % compared to an initial content","[1]; Low viscosity emulsified formulation, 30° C., 1 week",103.3%
same,"content, % compared to an initial content","[1]; Low viscosity emulsified formulation, 30° C., 2 weeks",103.9%
same,"content, % compared to an initial content","[1]; Low viscosity emulsified formulation, 30° C., 4 weeks",102.2%
same,"content, % compared to an initial content","[1]; Low viscosity emulsified formulation, 30° C., 8 weeks",105.6%
same,"content, % compared to an initial content","[1]; Low viscosity emulsified formulation, 30° C., 12 weeks",105%
same,content stability Result,"[1]; Low viscosity emulsified formulation, 30° C.",Stable
same,"content, % compared to an initial content","[1]; Low viscosity emulsified formulation, 45° C., 1 week",103.5%
same,"content, % compared to an initial content","[1]; Low viscosity emulsified formulation, 45° C., 2 weeks",102%
same,"content, % compared to an initial content","[1]; Low viscosity emulsified formulation, 45° C., 4 weeks",104.8%
same,"content, % compared to an initial content","[1]; Low viscosity emulsified formulation, 45° C., 8 weeks",94.2%
same,"content, % compared to an initial content","[1]; Low viscosity emulsified formulation, 45° C., 12 weeks",98.3%
same,content stability Result,"[1]; Low viscosity emulsified formulation, 45° C.",Stable
same,"content, % compared to an initial content","[1]; Low viscosity emulsified formulation, Sunlight, 1 week",94.4%
same,"content, % compared to an initial content","[1]; Low viscosity emulsified formulation, Sunlight, 2 weeks",98.1%
same,"content, % compared to an initial content","[1]; Low viscosity emulsified formulation, Sunlight, 4 weeks",101.6%
same,"content, % compared to an initial content","[1]; Low viscosity emulsified formulation, Sunlight, 8 weeks",101%
same,"content, % compared to an initial content","[1]; Low viscosity emulsified formulation, Sunlight, 12 weeks",102.6%
same,content stability Result,"[1]; Low viscosity emulsified formulation, Sunlight",Stable
same,"content, % compared to an initial content","[1]; Solubilized formulation, 4° C., 1 week",98.8%
same,"content, % compared to an initial content","[1]; Solubilized formulation, 4° C., 2 weeks",95.7%
same,"content, % compared to an initial content","[1]; Solubilized formulation, 4° C., 4 weeks",105.1%
same,"content, % compared to an initial content","[1]; Solubilized formulation, 4° C., 8 weeks",102.8%
same,"content, % compared to an initial content","[1]; Solubilized formulation, 4° C., 12 weeks",102.3%
same,content stability Result,"[1]; Solubilized formulation, 4° C.",Stable
same,"content, % compared to an initial content","[1]; Solubilized formulation, 30° C., 1 week",100%
same,"content, % compared to an initial content","[1]; Solubilized formulation, 30° C., 2 weeks",105.1%
same,"content, % compared to an initial content","[1]; Solubilized formulation, 30° C., 4 weeks",108.6%
same,"content, % compared to an initial content","[1]; Solubilized formulation, 30° C., 8 weeks",103.7%
same,"content, % compared to an initial content","[1]; Solubilized formulation, 30° C., 12 weeks",104.9%
same,content stability Result,"[1]; Solubilized formulation, 30° C.",Stable
same,"content, % compared to an initial content","[1]; Solubilized formulation, 45° C., 1 week",100.3%
same,"content, % compared to an initial content","[1]; Solubilized formulation, 45° C., 2 weeks",101.4%
same,"content, % compared to an initial content","[1]; Solubilized formulation, 45° C., 4 weeks",97.2%
same,"content, % compared to an initial content","[1]; Solubilized formulation, 45° C., 8 weeks",102.1%
same,"content, % compared to an initial content","[1]; Solubilized formulation, 45° C., 12 weeks",95.6%
same,content stability Result,"[1]; Solubilized formulation, 45° C.",Stable
same,"content, % compared to an initial content","[1]; Solubilized formulation, Sunlight, 1 week",97.9%
same,"content, % compared to an initial content","[1]; Solubilized formulation, Sunlight, 2 weeks",95.9%
same,"content, % compared to an initial content","[1]; Solubilized formulation, Sunlight, 4 weeks",104.9%
same,"content, % compared to an initial content","[1]; Solubilized formulation, Sunlight, 8 weeks",103.5%
same,"content, % compared to an initial content","[1]; Solubilized formulation, Sunlight, 12 weeks",103.3%
same,content stability Result,"[1]; Solubilized formulation, Sunlight",Stable
same,"content, % compared to an initial content","[2]; 4° C., 1 week",98.8%
same,"content, % compared to an initial content","[2]; 4° C., 2 weeks",101.3%
same,"content, % compared to an initial content","[2]; 4° C., 4 weeks",97%
same,"content, % compared to an initial content","[2]; 4° C., 8 weeks",97.9%
same,"content, % compared to an initial content","[2]; 4° C., 12 weeks",98.1%
same,content stability Results,[2]; 4° C.,Stable
same,"content, % compared to an initial content","[2]; 30° C., 1 week",101.8%
same,"content, % compared to an initial content","[2]; 30° C., 2 weeks",98.2%
same,"content, % compared to an initial content","[2]; 30° C., 4 weeks",99%
same,"content, % compared to an initial content","[2]; 30° C., 8 weeks",101.2%
same,"content, % compared to an initial content","[2]; 30° C., 12 weeks",102.9%
same,content stability Results,[2]; 30° C.,Stable
same,"content, % compared to an initial content","[2]; 45° C., 1 week",97.6%
same,"content, % compared to an initial content","[2]; 45° C., 2 weeks",97.5%
same,"content, % compared to an initial content","[2]; 45° C., 4 weeks",96.9%
same,"content, % compared to an initial content","[2]; 45° C., 8 weeks",99.2%
same,"content, % compared to an initial content","[2]; 45° C., 12 weeks",103.8%
same,content stability Results,[2]; 45° C.,Stable
same,"content, % compared to an initial content","[2]; Sunlight, 1 week",101.1%
same,"content, % compared to an initial content","[2]; Sunlight, 2 weeks",98.4%
same,"content, % compared to an initial content","[2]; Sunlight, 4 weeks",98.8%
same,"content, % compared to an initial content","[2]; Sunlight, 8 weeks",97.2%
same,"content, % compared to an initial content","[2]; Sunlight, 12 weeks",97.8%
same,content stability Results,[2]; Sunlight,Stable
same,HDFn Viability,[3]; 5 ug/ml,100%
same,HDFn Viability,[3]; 10 ug/ml,102%
same,HDFn Viability,[3]; 50 ug/ml,113%
same,cytotoxicity,[3]; at concentrations promoting procollagen synthesis,did not show any cytotoxicity
